Reference: ChEMBL document CHEMBL2401647, “High potency improvements to weak aryl uracil HCV polymerase inhibitor leads” (Bioorg Med Chem Lett, 2013)
Values after ≈ are worked out from the molar mass of the structure shown.

Assays:
Hepatitis C virus [1] = assay: Antiviral activity against Hepatitis C virus genotype 1b infected in human HuH7 cells; type: functional, organism-based, Hepacivirus hominis; conditions: Huh-7
Hepatitis C virus [2] = assay: Antiviral activity against Hepatitis C virus genotype 1a infected in human HuH7 cells; type: functional, organism-based, Hepacivirus hominis; conditions: subtype 1a, Huh-7
Hepatitis C virus [3] = assay: Inhibition of Hepatitis C virus genotype 1b NS5B polymerase; set-up: species or system Hepatitis C virus subtype 1b
[4] = Inhibition of Hepatitis C virus genotype 1a NS5B polymerase; set-up: species or system Hepatitis C virus subtype 1a
[5] = Permeability of the compound; type: ADME; conditions: not told; read-out: permeability
[6] = Solubility of the compound; type: physicochemical
[7] = AUC in rat; type: ADME, organism-based; conditions: plasma
[8] = AUC in po dosed rat; type: ADME, organism-based; conditions: plasma
[9] = Half life in iv dosed rat; type: ADME, organism-based; conditions: in vivo
[10] = Oral bioavailability in rat; type: ADME, organism-based; conditions: in vivo
[11] = Cytotoxicity against human HuH7 cells; type: cell-based; conditions: Huh-7 cells, read-out: TD50 (the source's name)

| SMILES | EC50 (Hepatitis C virus [1]) [nM] | EC50 (Hepatitis C virus [2]) [nM] | IC50 (Hepatitis C virus [3]) [nM] | IC50 [4] [nM] | Papp [5] [×10⁻⁶ cm/s] | solubility [6] [µM] | AUC [7] [ng·h/mL] | AUC [8] [ng·h/mL] | half-life [9] [min] | bioavailability [10] [%] | CC50 [11] [nM] |
| --- | --- | --- | --- | --- | --- | --- | --- | --- | --- | --- | --- |
| CC(C)(C)c1cc(N2CCC(=O)NC2=O)ccc1O | > 100000 | > 100000 | 23000 | 71000 | – | – | – | – | – | – | – |
| COc1ccc(N2CCC(=O)NC2=O)cc1C(C)(C)C | > 100000 | > 100000 | – | 26000 | 5.5 | 73 (≈ 20.2 µg/mL) | 12400 | 5570 | 228 | 45 | – |
| COc1c(C(=O)Nc2ccc(NS(C)(=O)=O)cc2)cc(N2CCC(=O)NC2=O)cc1C(C)(C)C | 20 | 60 | 20 | 10 | 0.5 | 2 (≈ 0.977 µg/mL) | 3380 | 50 | 66 | 1.5 | – |
| CC(C)(C)c1cc(N2CCC(=O)NC2=O)cc(C(=O)Nc2ccccc2)c1O | 6310 | 18600 | 230 | 4280 | – | – | – | – | – | – | – |
| COc1c(C(=O)Nc2ccccc2)cc(N2CCC(=O)NC2=O)cc1C(C)(C)C | 1030 | 3670 | 750 | 890 | 1.4 | 12 (≈ 4.75 µg/mL) | 2190 | 330 | 30 | 15 | – |
| CC(C)(C)c1cc(N2CCC(=O)NC2=O)cc(C(=O)NCc2ccccc2)c1O | 15300 | 14200 | 940 | 8590 | – | – | – | – | – | – | – |
| COc1c(C(=O)Nc2ccc(N)cc2)cc(N2CCC(=O)NC2=O)cc1C(C)(C)C | 4240 | > 50000 | 1240 | 2060 | – | – | – | – | – | – | – |
| COc1c(C(=O)Nc2ccc(NC(C)=O)cc2)cc(N2CCC(=O)NC2=O)cc1C(C)(C)C | – | – | 5120 | 3420 | – | – | – | – | – | – | – |
| CC(C)(C)c1cc(N2CCC(=O)NC2=O)cc(C(=O)Nc2ccc(NS(C)(=O)=O)cc2)c1O | 50 | 390 | 2 | 20 | – | – | – | – | – | – | – |
| CC(C)(C)c1cc(N2CCC(=O)NC2=O)cc(C(=O)Nc2ccc(OS(C)(=O)=O)cc2)c1O | 1130 | 4650 | 30 | 180 | – | – | – | – | – | – | > 50000 |
| COc1c(C(=O)Nc2ccc(OS(C)(=O)=O)cc2)cc(N2CCC(=O)NC2=O)cc1C(C)(C)C | 860 | 3400 | 1040 | 670 | – | – | – | – | – | – | > 50000 |
| CN(c1ccc(NC(=O)c2cc(N3CCC(=O)NC3=O)cc(C(C)(C)C)c2O)cc1)S(C)(=O)=O | 1040 | 3550 | 30 | 460 | – | – | – | – | – | – | > 50000 |
| COc1c(C(=O)Nc2ccc(N(C)S(C)(=O)=O)cc2)cc(N2CCC(=O)NC2=O)cc1C(C)(C)C | 560 | 5490 | 830 | 770 | – | – | – | – | – | – | > 50000 |
| CC(C)(C)c1cc(N2CCC(=O)NC2=O)cc(C(=O)Nc2cccc(NS(C)(=O)=O)c2)c1O | 7560 | 27800 | 50 | 360 | – | – | – | – | – | – | > 50000 |
| CC(C)(C)c1cc(-n2ccc(=O)[nH]c2=O)cc(C(=O)Nc2ccc(NS(C)(=O)=O)cc2)c1O | 94 | 590 | 10 | 38 | – | – | – | – | – | – | – |
| COc1c(C(=O)Nc2ccc(NS(C)(=O)=O)cc2)cc(-n2ccc(=O)[nH]c2=O)cc1C(C)(C)C | 50 | 270 | 30 | 20 | 0.2 | 13 (≈ 6.33 µg/mL) | – | – | – | – | – |
| CC(C)(C)c1cc(N2CCC(=O)NC2=O)cc(C(=O)Nc2ccc(NS(=O)(=O)CCN3CCOCC3)cc2)c1O | 420 | 1960 | 7 | 50 | – | – | – | – | – | – | – |
| COc1c(C(=O)Nc2ccc(NS(=O)(=O)CCN3CCOCC3)cc2)cc(N2CCC(=O)NC2=O)cc1C(C)(C)C | 580 | 5310 | 310 | 110 | 0.1 | 74 (≈ 43.5 µg/mL) | 2540 | – | 36 | 0 | – |
